This is an account of results in patent US20180008587A1, “THIOHYDANTOIN ANDROGEN RECEPTOR ANTAGONISTS FOR THE TREATMENT OF CANCER” (Jaressen Pharmaceutica NV, priority 2016, published 2018).

Where a chain is given by its changes, count along the chain named.

Format in all cases: cell-based
Assay [1] deals with T1, F876L mutant Androgen Receptor (AR-F876L) (Homo sapiens, UniProt P10275, F877L).
T1 construct: expressed in transfected cells; host or cells: LNCaP (LNCaP F876L)
T1 sequence (P10275 1-920 F877L): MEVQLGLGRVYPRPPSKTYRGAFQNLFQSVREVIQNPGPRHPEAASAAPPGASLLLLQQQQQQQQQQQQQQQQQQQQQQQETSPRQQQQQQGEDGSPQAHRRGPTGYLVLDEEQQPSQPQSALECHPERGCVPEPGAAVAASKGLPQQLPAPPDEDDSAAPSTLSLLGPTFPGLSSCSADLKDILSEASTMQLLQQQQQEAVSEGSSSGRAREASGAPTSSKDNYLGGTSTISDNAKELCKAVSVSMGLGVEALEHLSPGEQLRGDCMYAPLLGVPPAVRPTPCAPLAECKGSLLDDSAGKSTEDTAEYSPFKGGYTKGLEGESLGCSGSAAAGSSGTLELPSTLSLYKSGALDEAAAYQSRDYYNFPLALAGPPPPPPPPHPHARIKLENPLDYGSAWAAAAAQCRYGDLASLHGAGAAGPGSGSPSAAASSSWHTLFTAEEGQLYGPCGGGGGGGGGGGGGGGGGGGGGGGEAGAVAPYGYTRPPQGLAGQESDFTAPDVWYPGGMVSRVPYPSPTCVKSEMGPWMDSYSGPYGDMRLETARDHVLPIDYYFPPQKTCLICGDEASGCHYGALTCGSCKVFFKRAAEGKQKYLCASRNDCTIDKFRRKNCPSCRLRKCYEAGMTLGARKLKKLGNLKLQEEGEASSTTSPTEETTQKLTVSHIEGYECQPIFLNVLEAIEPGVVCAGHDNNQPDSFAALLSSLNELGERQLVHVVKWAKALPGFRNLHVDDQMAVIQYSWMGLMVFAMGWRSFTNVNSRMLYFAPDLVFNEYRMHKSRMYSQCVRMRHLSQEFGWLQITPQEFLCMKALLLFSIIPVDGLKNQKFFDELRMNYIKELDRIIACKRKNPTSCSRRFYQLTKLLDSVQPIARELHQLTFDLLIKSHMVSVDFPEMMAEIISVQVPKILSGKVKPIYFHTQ
Nature of the assay: LNCaP-AR-F876L ANT reporter assay (ARE firefly luciferase, antagonist mode). As to conditions: for Emax: maximum % inhibition of R1881 control response over tested concentration range, read-out: LNCaP-AR-F876L ANT MAX % Inh; for IC50: read-out: LNCaP-AR-F876L ANT pIC50 (converted). Summed up:
(§1)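 Puromycin-selected pooled LNCaP populations expressing AR-wt or AR-F876L are seeded in CSS medium and treated with compound for 20-24 h at 37 °C. For antagonist testing, agonist is added at 400 pM (WT) or 600 pM (F876L). Potency values derive from least-squares fitting of luminescence RLU.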

For assay [2], the target named is T1, F876L mutant Androgen Receptor (AR-F876L). Description: LNCaP-AR-F876L AG reporter assay (ARE firefly luciferase, agonist mode). The following applies: for EC50: agonist mode, −Log10(EC50 [Molar]), read-out: LNCaP-AR-F876L AG pEC50 (converted); for Emax: maximum % stimulation (agonist response) over tested concentration range, read-out: LNCaP-AR-F876L AG MAX % Stim. Summed up: as §1
Background: A reporter such as luciferase makes a cellular process visible.

Assay [3] deals with T2, wild-type Androgen Receptor (AR-wt) (Homo sapiens, UniProt P10275).
T2 construct: expressed in transfected cells; host or cells: LNCaP (LNCaP AR (cs))
T2 sequence (P10275 1-920): T1 sequence (P10275 1-920 F877L) with L877F
Description: LNCaP-AR-wt AG reporter assay (ARE firefly luciferase, agonist mode). As to conditions: for EC50: agonist mode, −Log10(EC50 [Molar]), read-out: LNCaP-AR-wt AG pEC50 (converted); for Emax: maximum % stimulation (agonist response) over tested concentration range, read-out: LNCaP-AR-wt AG MAX % Stim. An outline of the steps:
as §1

The target of assay [4] is T2, wild-type Androgen Receptor (AR-wt). Description: LNCaP-AR-wt ANT reporter assay (ARE firefly luciferase, antagonist mode). The following applies: for IC50: antagonist mode, 400 pM R-1881 challenge, −Log10(IC50 [Molar]), read-out: LNCaP-AR-wt ANT pIC50 (converted); for Emax: maximum % inhibition of R1881 control response over tested concentration range, read-out: LNCaP-AR-wt ANT MAX % Inh. Summed up: as §1

Turning to `N#Cc1ncc(N2C(=O)C3(CCC3)N(c3ccc(C(=O)NCCCO)c(F)c3)C2=S)cc1C(F)(F)F` [Cpd 40, 4-[6-[6-cyano-5-(trifluoromethyl)-3-pyridyl]-5-oxo-7-thioxo-6,8-diazaspiro[3.4]octan-8-yl]-2-fluoro-N-(3-hydroxypropyl)benzamide], the Emax in assay [1] was 99.5%; in assay [2], 0.2%; in assay [3], -0.3%; in assay [4] it was 101%. Besides, the IC50 in assay [1] is 0.162 µM; in assay [4], 0.24 µM. Moreover, the EC50 in assay [2] and in assay [3] was above 15.1 µM throughout.

As for `CN1CCC(Oc2ccc(N3C(=S)N(c4cnc(C#N)c(C(F)(F)F)c4)C(=O)C34CCC4)cc2)CC1` [Cpd 85, 5-[8-[4-[(1-methyl-4-piperidyl)oxy]phenyl]-5-oxo-7-thioxo-6,8-diazaspiro[3.4]octan-6-yl]-3-(trifluoromethyl)pyridine-2-carbonitrile], the Emax came out at 99.8% in assay [1], 0.8% in assay [2], 0.2% in assay [3] and 101% in assay [4].

On to `N#Cc1ncc(N2C(=O)C3(CCC3)N(c3ccc(OC4CCNCC4)cc3)C2=S)cc1C(F)(F)F` [Cpd 35, 5-[5-oxo-8-[4-(4-piperidyloxy)phenyl]-7-thioxo-6,8-diazaspiro[3.4]octan-6-yl]-3-(trifluoromethyl)pyridine-2-carbonitrile], for which the Emax in assay [1] is 101%; in assay [2], 0%; in assay [3], -0.1%; in assay [4], 97.5%. Moreover, the results for the IC50 in assay [1] and in assay [4] were 0.145 µM and 0.24 µM, respectively. For the same molecule, the EC50 in assay [2] and in assay [3] was above 15.1 µM in each case.
